The source of these data is PubChem BioAssay AID330 (DTP/NCI, 2004).

The structures appear in SMILES notation. Where “and” joins values, the source holds several entries; their conditions need not be identical. Equal entries are not always repeated. Inconclusive results and toxic doses are left out.

The assay deals with P388 leukemia ip, CD2F1 mice, survival T/C. Briefly: NCI In Vivo Anticancer Drug Screen. Data for tumor model P388 Leukemia (intraperitoneal) in CD2F1 (CDF1) mice. The settings on record: endpoint: median survival time, higher = longer survival. Put shortly: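 Mice carrying the transplanted tumor received test compound or vehicle. Survival was recorded in each group, and the value is the treated-group measurement divided by that of the vehicle-treated control group.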

The mark [1] stands for this setting: dose: 25.0 mg/kg/injection, schedule: Q01DX009 (ip), vehicle: saline with Tween-80.
Setting [2] is: dose: 50.0 mg/kg/injection, schedule: Q01DX009 (ip), vehicle: saline with Tween-80.
Where [3] appears, read: dose: 50.0 mg/kg/injection, schedule: Q01DX009 (ip), vehicle: saline.
Setting [4] is: dose: 100.0 mg/kg/injection, schedule: Q01DX009 (ip), vehicle: saline.
Where [5] appears, read: dose: 200.0 mg/kg/injection, schedule: Q01DX009 (ip), vehicle: saline.
Where [6] appears, read: dose: 50.0 mg/kg/injection, schedule: Q01DX005 (ip), vehicle: saline.
[7] abbreviates: dose: 100.0 mg/kg/injection, schedule: Q01DX005 (ip), vehicle: saline.
The mark [8] stands for this setting: dose: 50.0 mg/kg/injection, schedule: Q01DX005 (ip), vehicle: saline with Tween-80.
Where [9] appears, read: dose: 100.0 mg/kg/injection, schedule: Q01DX005 (ip), vehicle: saline with Tween-80.
Where [10] appears, read: dose: 200.0 mg/kg/injection, schedule: Q01DX005 (ip), vehicle: saline with Tween-80.
Setting [11] is: dose: 60.0 mg/kg/injection, schedule: Q01DX005 (ip), vehicle: saline with Tween-80.
Setting [12] is: dose: 120.0 mg/kg/injection, schedule: Q01DX005 (ip), vehicle: saline with Tween-80.
The mark [13] stands for this setting: dose: 240.0 mg/kg/injection, schedule: Q01DX005 (ip), vehicle: saline with Tween-80.
Where [14] appears, read: dose: 50.0 mg/kg/injection, schedule: Q01DX005 (ip), vehicle: Klucel (hydroxypropylcellulose) (HPC).
Setting [15] is: dose: 100.0 mg/kg/injection, schedule: Q01DX005 (ip), vehicle: Klucel (hydroxypropylcellulose) (HPC).
[16] abbreviates: dose: 200.0 mg/kg/injection, schedule: Q01DX005 (ip), vehicle: Klucel (hydroxypropylcellulose) (HPC).

For the molecule `CC(CCCN(CCCl)CCCl)Nc1ccnc2cc(Cl)ccc12` (stereo not drawn), the T/C runs as follows: (dose: 0.12 mg/kg/injection, schedule: Q01DX009 (ip), vehicle: saline + alcohol) 100 % of control; (dose: 0.5 mg/kg/injection, schedule: Q01DX009 (ip), vehicle: saline sonified) 155 % of control; (dose: 0.66 mg/kg/injection, schedule: Q01DX009 (ip), vehicle: saline) 159 % of control; (dose: 1.0 mg/kg/injection, schedule: Q01DX009 (ip), vehicle: saline sonified) 155 % of control; (dose: 1.5 mg/kg/injection, schedule: Q01DX009 (ip), vehicle: saline) 159 % of control; (dose: 2.0 mg/kg/injection, schedule: Q01DX009 (ip), vehicle: saline sonified) 105 % of control.
With `CC(/C=C/c1ccccc1)=N\NC(=O)C(N)=O`, the T/C was 97 % of control (dose: 12.5 mg/kg/injection, schedule: Q01DX009 (ip), vehicle: saline with Tween-80); 97 % of control under setting [1]; 96 % of control under setting [2]; 100 % of control under setting [3]; 91 % of control under setting [4]; 98 % of control under setting [5].
Take `C=C/C(=C/CC(=O)O[C@@H]1CCC(C)(C)C(C=O)=C1C)Sc1ccccc1`: the T/C runs as follows: (dose: 50.0 mg/kg/injection, schedule: Q01DX001 (ip), vehicle: DMSO) 92 % of control; (dose: 100.0 mg/kg/injection, schedule: Q01DX001 (ip), vehicle: DMSO) 92 % of control; (dose: 200.0 mg/kg/injection, schedule: Q01DX001 (ip), vehicle: DMSO) 92 % of control.
In the case of `CCn1c(=O)c2[nH]c(Br)nc2n(CCOC)c1=O`, the T/C (dose: 50.0 mg/kg/injection, schedule: Q01DX009 (ip), vehicle: Klucel (hydroxypropylcellulose) (HPC)) was 90 % of control; the T/C (dose: 100.0 mg/kg/injection, schedule: Q01DX009 (ip), vehicle: Klucel (hydroxypropylcellulose) (HPC)) was 93 % of control; the T/C (dose: 200.0 mg/kg/injection, schedule: Q01DX009 (ip), vehicle: Klucel (hydroxypropylcellulose) (HPC)) is 104 % of control.
As to `CCC(C)n1c(C)nc2cc(C(F)(F)F)cc(N)c21` (stereo not drawn), the T/C is, setting by setting: (dose: 50.0 mg/kg/injection, schedule: Q01DX009 (ip), vehicle: saline + alcohol) 99 % of control; (dose: 100.0 mg/kg/injection, schedule: Q01DX009 (ip), vehicle: saline + alcohol) 99 % of control.
Consider `CCOS(=O)(=O)CS(C)(=O)=O`, for which the T/C reads like this: (dose: 25.0 mg/kg/injection, schedule: Q01DX005 (ip), vehicle: saline) 118 % of control; under setting [6], 118 % of control; under setting [7], 160 % of control and 170 % of control; (dose: 150.0 mg/kg/injection, schedule: Q01DX005 (ip), vehicle: saline) 104 % of control.
`C=CS(=O)(=O)c1ccc(Nc2cc(S(=O)(=O)O)c(N)c3c2C(=O)c2ccccc2C3=O)cc1`: the T/C was 116 % of control and 120 % of control under setting [1]; 104 % of control and 115 % of control and 123 % of control under setting [2]; 107 % of control and 120 % of control and 123 % of control (dose: 100.0 mg/kg/injection, schedule: Q01DX009 (ip), vehicle: saline with Tween-80); 105 % of control and 118 % of control (dose: 200.0 mg/kg/injection, schedule: Q01DX009 (ip), vehicle: saline with Tween-80).
With `Nc1cc(=O)[nH]c(=S)n1-c1ccccn1`, the T/C runs as follows: (dose: 75.0 mg/kg/injection, schedule: Q01DX001 (ip), vehicle: saline with Tween-80) 104 % of control; (dose: 150.0 mg/kg/injection, schedule: Q01DX001 (ip), vehicle: saline with Tween-80) 100 % of control; (dose: 300.0 mg/kg/injection, schedule: Q01DX001 (ip), vehicle: saline with Tween-80) 104 % of control.
Turning to `CCCCn1cnc2c(cnn2C)c1=N`, the T/C is 97 % of control (dose: 100.0 mg/kg/injection, schedule: Q04DX002 (ip), vehicle: saline) and 97 % of control (dose: 200.0 mg/kg/injection, schedule: Q04DX002 (ip), vehicle: saline).
`CC(=O)Cc1cc(-c2cc(CC(C)=O)on2)no1`: the T/C reads like this: (dose: 60.0 mg/kg/injection, schedule: Q01DX005 (ip), vehicle: saline) 103 % of control; (dose: 120.0 mg/kg/injection, schedule: Q01DX005 (ip), vehicle: saline) 99 % of control; (dose: 240.0 mg/kg/injection, schedule: Q01DX005 (ip), vehicle: saline) 100 % of control.
As to `CC(C)N1C(=O)N(Cl)C2C1N(Cl)C(=O)N2Cl` (stereo not drawn), the T/C was 99 % of control (dose: 25.0 mg/kg/injection, schedule: Q01DX005 (ip), vehicle: saline with Tween-80); 108 % of control and 122 % of control under setting [8]; 122 % of control under setting [9]; 113 % of control and 117 % of control under setting [10].
Turning to `C/C(=N/N(C)C)c1ccc(Cl)cc1`, the T/C (dose: 100.0 mg/kg/injection, schedule: Q01DX001 (ip), vehicle: saline) is 100 % of control; the T/C (dose: 200.0 mg/kg/injection, schedule: Q01DX001 (ip), vehicle: Klucel (hydroxypropylcellulose) (HPC)) was 108 % of control; the T/C (dose: 200.0 mg/kg/injection, schedule: Q01DX001 (ip), vehicle: saline) was 108 % of control; the T/C (dose: 400.0 mg/kg/injection, schedule: Q01DX001 (ip), vehicle: Klucel (hydroxypropylcellulose) (HPC)) was 106 % of control; the T/C (dose: 400.0 mg/kg/injection, schedule: Q01DX001 (ip), vehicle: saline) was 106 % of control.
On to `COC(=O)NN(C(=O)OC)C1CCC2C1c1ccccc1N(C(=O)OC)N2C(=O)OC` (stereo not drawn), for which the T/C was 108 % of control (dose: 60.0 mg/kg/injection, schedule: Q01DX005 (ip), vehicle: Klucel (hydroxypropylcellulose) (HPC)); 113 % of control (dose: 120.0 mg/kg/injection, schedule: Q01DX005 (ip), vehicle: Klucel (hydroxypropylcellulose) (HPC)); 103 % of control (dose: 240.0 mg/kg/injection, schedule: Q01DX005 (ip), vehicle: Klucel (hydroxypropylcellulose) (HPC)).
As to `CCN(CC)CC(C)=O`, the T/C is 101 % of control (dose: 25.0 mg/kg/injection, schedule: Q01DX009 (ip), vehicle: saline); 102 % of control under setting [3]; 103 % of control under setting [4]; 104 % of control under setting [5].
Consider `S=C1N(c2ccc(Br)cc2)C2=Nc3ccccc3SC(=C2N=Nc2ccccc2Cl)N1c1ccc(Cl)cc1`, for which the T/C is 97 % of control under setting [8], 93 % of control under setting [9] and 93 % of control under setting [10].
With `O=C(Nc1cc(-c2ccccc2)nn1-c1ccccc1)c1ccccc1F`, the T/C by setting is: under setting [11], 103 % of control; under setting [12], 103 % of control; under setting [13], 111 % of control.
Take `c1cc2nc(N3CCNCC3)nc(N3CCOCC3)c2s1`: the T/C under setting [3] is 94 % of control, the T/C under setting [4] was 97 % of control and the T/C under setting [5] is 93 % of control.
For the molecule `COc1cccc(NCCCSC)c1`, the T/C was 102 % of control under setting [6] and 116 % of control under setting [7].
Regarding `O=C1CSC(c2cccc(Cl)c2)N1c1nncs1` (stereo not drawn), the T/C was 109 % of control under setting [11], 97 % of control under setting [12] and 98 % of control under setting [13].
Turning to `Fc1ccc(NC(=S)SCc2ccc(Cl)c(Cl)c2)c(F)c1`, the T/C is 93 % of control (dose: 50.0 mg/kg/injection, schedule: Q01DX009 (ip), vehicle: suspension in saline); 100 % of control (dose: 100.0 mg/kg/injection, schedule: Q01DX009 (ip), vehicle: suspension in saline); 88 % of control (dose: 200.0 mg/kg/injection, schedule: Q01DX009 (ip), vehicle: suspension in saline).
In the case of `N#CNC(=S)SCC(N)=O`, the T/C is 100 % of control under setting [14], 100 % of control under setting [15] and 102 % of control under setting [16].
`C/C(=N\N=c1\sc2ccccc2n1CC(=O)O)c1ccc([N+](=O)[O-])cc1`: the T/C is 93 % of control (dose: 100.0 mg/kg/injection, schedule: Q01DX001 (ip), vehicle: saline with Tween-80) and 101 % of control (dose: 200.0 mg/kg/injection, schedule: Q01DX001 (ip), vehicle: saline with Tween-80).
For `N#CC(C(N)=O)C1(C(C#N)C(N)=O)C(=O)Nc2ccccc21` (stereo not drawn), the T/C is, setting by setting: (dose: 25.0 mg/kg/injection, schedule: Q01DX005 (ip), vehicle: Klucel (hydroxypropylcellulose) (HPC)) 103 % of control; under setting [14], 100 % of control; under setting [15], 98 % of control; under setting [16], 100 % of control.
